This note sets out measurements from publication PMC3419191, “Identification of Novel Piperazinylquinoxaline Derivatives as Potent Phosphoinositide 3-Kinase (PI3K) Inhibitors” (PLoS ONE, 2012).

One series concerns HL60. Put plainly: MTT assay, antiproliferative activity against HL60 cells. The format is cell-based. Conditions: Homo sapiens, HL-60, 72 h, mean of at least two determinations. The text has this: (§1) All synthesized target compounds were firstly tested for their antiproliferative activity against five human cancer cell lines, PC3, A549, HCT116, HL60, and KB, using MTT assay.
(§2) Human prostate cancer PC3 cells, lung adenocarcinoma epithelial A549 cells, colon cancer HCT116 cells, promyelocytic leukemia HL60 cells and nasopharyngeal carcinoma KB cells were obtained from the cell bank of the Institute of Biochemistry and Cell Biology, Chinese Academy of Sciences (Shanghai, China). The inhibitory activity of target compounds against tested cancer cell lines was measured using the MTT assay. PC3, A549, HCT116, HL60, and KB cancer cell lines were cultured in RPMI-1640 medium (Invitrogen, Carlsbad, CA, USA) with heat-inactivated 10% fetal bovine serum, penicillin (100 units/mL) and streptomycin (100 µg/mL) and incubated in an atmosphere with 20% oxygen and 5% carbon dioxide at 37°C. All tested compounds were dissolved in DMSO at concentrations of 10.0 mg/mL and diluted to appropriate concentrations. Cells were plated in 96-well plates for 24 h and subsequently treated with different concentrations of all tested compounds for 72 h. Viable cells were determined using 3-(4,5-dimethylthiazol-2-yl)-2,5-diphenyltetrazolium bromide assay kit (MTT, Sigma) according to operation instructions provided by the manufacturer. The concentration of drug causing 50% inhibition in absorbance compared with control cells (IC50) was calculated using the software of dose-effect analysis with microcomputers.
(In general: Formazan colour is commonly taken as a measure of viable cells.)

Another series concerns PC3. Kind of series: MTT assay, antiproliferative activity against PC3 cells. Conditions: Homo sapiens, PC-3, 72 h, mean of at least two determinations. The format is cell-based.
Text: as §1, §2

A further series has as its system KB. Put plainly: MTT assay, antiproliferative activity against KB cells. Conditions: Homo sapiens, 72 h, mean of at least two determinations. The series is classed as cell-based.
Text: as §1, §2

Another series deals with A549. Put plainly: MTT assay, antiproliferative activity against A549 cells. The format is cell-based. The following applies: Homo sapiens, 72 h, mean of at least two determinations.
Text: as §1, §2

The next series concerns HCT116. Put plainly: MTT assay, antiproliferative activity against HCT116 cells. The series is classed as cell-based. The following applies: Homo sapiens, HCT-116, 72 h, mean of at least two determinations.
Text: as §1, §2

In turn, `Cc1ccc(S(=O)(=O)c2nc3ccccc3nc2N2CCC(C(N)=O)CC2)cc1` [Compound 5, 2-(4-Carbamoylpiperidin-1-yl)-3-(4-methylphenylfsulfonyl)quinoxaline] displayed a melting point of 200 to 203 °C. Also, the IC50 in the series with HL60 is 0.14 µM. This compound also registered an IC50 in the series on PC3 of 2.28 µM. The compound also yielded an IC50 in the series on KB of 11.8 µM. 27.4 µM corresponded to half-maximal inhibition with A549 (IC50). This compound also registered an IC50 with HCT116 of 1.2 µM.

In the case of `COc1ccc(S(=O)(=O)c2nc3ccccc3nc2N2CCC(C(N)=O)CC2)cc1` [Compound 6, 2-(4-Carbamoylpiperidin-1-yl)-3-(4-methoxyphenylsulfonyl)quinoxaline], the melting point lay within 185 to 187 °C. In the series on HL60, this compound came in with an IC50 of 0.21 µM. This compound also had an IC50 in the series with PC3 of 2.28 µM. In addition, 10.2 µM corresponded to half-maximal inhibition in the series with KB (IC50). This compound also yielded an IC50 in the series with A549 of 17 µM. This compound also registered a 50% inhibitory concentration (IC50) in the series with HCT116 of 2.55 µM.

Turning to `NC(=O)C1CCN(c2nc3ccccc3nc2S(=O)(=O)c2ccc(Br)cc2)CC1` [Compound 7, 2-(4-Carbamoylpiperidin-1-yl)-3-(4-bromophenylsulfonyl)quinoxaline], the melting point was 209 to 210 °C. In the series on HL60, this compound gave an IC50 of 0.15 µM. Moreover, in the series on PC3, half-maximal inhibition (IC50) required 1.17 µM. The compound also registered an IC50 in the series with KB of 4.22 µM. The same compound displayed an IC50 in the series on A549 of 12.1 µM. This compound also showed an IC50 in the series on HCT116 of 1.61 µM.

As to `NC(=O)C1CCN(c2nc3ccccc3nc2S(=O)(=O)c2ccc(F)cc2)CC1` [Compound 8, 2-(4-Carbamoylpiperidin-1-yl)-3-(4-fluorophenylsulfonyl)quinoxaline], the melting point lay within 198 to 202 °C. 4.15 µM corresponded to half-maximal inhibition in the series with HL60 (IC50). In addition, half-maximal inhibition with PC3 (IC50) required 4.36 µM. The same compound registered an IC50 with KB of 6.45 µM. The compound further yielded an IC50 with A549 of 10.2 µM. Further, the IC50 in the series on HCT116 was 7.13 µM.

As to `CC(=O)N1CCN(c2nc3ccccc3nc2S(=O)(=O)c2ccc(C)cc2)CC1` [Compound 10, 2-(4-Acetylpiperazin-1-yl)-3-(4-methylphenylsulfonyl)quinoxaline], the melting point lay within 148 to 150 °C. This compound also showed an IC50 in the series on HL60 of 3.28 µM. Also, the concentration for half-maximal inhibition (IC50) in the series with PC3 is 2.27 µM. Half-maximal inhibition in the series on KB (IC50) was put at 3.89 µM. Besides, in the series on A549, the IC50 stood at 2.42 µM. The compound further displayed an IC50 in the series on HCT116 of 2.6 µM.

For the compound `COc1ccc(S(=O)(=O)c2nc3ccccc3nc2N2CCN(C(C)=O)CC2)cc1` [Compound 11, 2-(4-Acetylpiperazin-1-yl)-3-(4-methoxyphenylsulfonyl)quinoxaline], the melting point is 160 to 162 °C. Besides, the IC50 in the series on HL60 worked out at 0.48 µM. In addition, half-maximal inhibition with PC3 (IC50) required 2.18 µM. In the series with KB, this compound came in with a 50% inhibitory concentration (IC50) of 10.3 µM. This compound also gave an IC50 in the series with A549 of 18.6 µM. Further, the IC50 with HCT116 amounted to 3.66 µM.

Take `CC(=O)N1CCN(c2nc3ccccc3nc2S(=O)(=O)c2ccc(Br)cc2)CC1` [Compound 12, 2-(4-Acetylpiperazin-1-yl)-3-(4-bromophenylsulfonyl)quinoxaline]: the melting point is 174 to 178 °C. Moreover, the IC50 in the series on HL60 worked out at 0.12 µM. For the same compound, the IC50 in the series with PC3 is 3.03 µM. Moreover, in the series with KB, the IC50 was 4.3 µM. The IC50 in the series on A549 was found to be 9.79 µM. In addition, it took 0.53 µM to reach half-maximal inhibition in the series on HCT116 (IC50).

In the case of `CC(=O)N1CCN(c2nc3ccccc3nc2S(=O)(=O)c2ccc(F)cc2)CC1` [Compound 13, 2-(4-Acetylpiperazin-1-yl)-3-(4-fluorophenylsulfonyl)quinoxaline], the melting point lay within 108 to 112 °C. In the series with HL60, this compound showed an IC50 of 1.78 µM. This compound also registered an IC50 in the series with PC3 of 3.17 µM. The same compound registered an IC50 in the series with KB of 6.15 µM. Moreover, in the series with A549, 7.12 µM corresponded to half-maximal inhibition (IC50). This compound also had an IC50 in the series on HCT116 of 4.34 µM.

Consider `COc1ccc(S(=O)(=O)c2nc3ccccc3nc2N2CCN(C)CC2)cc1` [Compound 16, 2-(4-Methylpiperazin-1-yl)-3-(4-methoxyphenylsulfonyl)quinoxaline], for which the melting point fell in the range of 121 to 124 °C. In the series with HL60, the IC50 stood at 0.54 µM. In the series on PC3, this compound yielded an IC50 of 1.55 µM. In the series on KB, this compound had an IC50 of 2.53 µM. This compound had an IC50 with A549 of 8.57 µM. Besides, the IC50 in the series on HCT116 worked out at 2.37 µM.

For `CN1CCN(c2nc3ccccc3nc2S(=O)(=O)c2ccc(F)cc2)CC1` [Compound 18, 2-(4-Methylpiperazin-1-yl)-3-(4-fluorophenylsulfonyl)quinoxaline], the melting point was 147 to 148 °C. Besides, the IC50 with HL60 was 2.75 µM. In the series on PC3, it took 3.09 µM to reach half-maximal inhibition (IC50). In the series with KB, this compound showed an IC50 of 21.6 µM. Besides, the IC50 in the series with A549 worked out at 7.95 µM. The IC50 with HCT116 came to 8.21 µM.

On to `Cc1ccc(S(=O)(=O)c2nc3ccccc3nc2N2CCNCC2)cc1` [Compound 20, 2-(Piperazin-1-yl)-3-(4-methylphenylsulfonyl)quinoxaline], for which the IC50 with HL60 is 0.12 µM; with PC3 it was 1.32 µM; in the series on KB, 7.26 µM; in the series with A549, 14.4 µM; in the series on HCT116, 0.47 µM.

`COc1ccc(S(=O)(=O)c2nc3ccccc3nc2N2CCNCC2)cc1` [Compound 21, 2-(Piperazin-1-yl)-3-(4-methoxyphenylsulfonyl)quinoxaline] registered a melting point of 142 to 144 °C. In the series with HL60, the midpoint of inhibition, the IC50, lay at 0.16 µM. Moreover, the IC50 in the series with PC3 worked out at 0.68 µM. Half-maximal inhibition in the series with KB (IC50) was put at 11.5 µM. The compound further came in with an IC50 with A549 of 1.37 µM. This compound gave a 50% inhibitory concentration (IC50) with HCT116 of 0.63 µM.

Consider `O=S(=O)(c1ccc(F)cc1)c1nc2ccccc2nc1N1CCNCC1` [Compound 23, 2-(Piperazin-1-yl)-3-(4-fluorophenylsulfonyl)quinoxaline], for which the IC50 came out at 1.39 µM in the series with HL60; 2.05 µM in the series on PC3; 4.58 µM in the series with KB; 2.79 µM in the series with A549; 2.43 µM with HCT116.

`CC1CN(c2nc3ccccc3nc2S(=O)(=O)c2ccc(F)cc2)CCN1` (stereo not drawn) [Compound 28, 2-(3-Methylpiperazin-1-yl)-3-(4-fluorophenylsulfonyl)quinoxaline] showed a melting point of 119 to 123 °C. In the series with HL60, this compound returned an IC50 of 1.95 µM. In the series on PC3, this compound registered an IC50 of 2.34 µM. In the series with KB, this compound gave an IC50 of 2.03 µM. For the same compound, half-maximal inhibition in the series on A549 (IC50) required 3.45 µM. The compound also yielded an IC50 with HCT116 of 2.2 µM.

The compound `Cc1ccc(S(=O)(=O)c2nc3ccccc3nc2N2CCN(C(=O)c3ccccc3)CC2)cc1` [Compound 30, 2-(4-Benzoylpiperazin-1-yl)-3-(4-methylphenylsulfonyl)quinoxaline] registered a melting point of 182 to 185 °C. This compound also had an IC50 with HL60 of 17.3 µM. This compound also gave an IC50 with PC3 of 5.81 µM. Also, in the series with KB, the midpoint of inhibition, the IC50, lay at 3.67 µM. In the series with A549, this compound showed an IC50 of 8.03 µM. In the series with HCT116, this compound came in with an IC50 of 6.9 µM.

`COc1ccc(S(=O)(=O)c2nc3ccccc3nc2N2CCN(C(=O)c3ccccc3)CC2)cc1` [Compound 31, 2-(4-Benzoylpiperazin-1-yl)-3-(4-methoxyphenylsulfonyl)quinoxaline] had a melting point of 166 to 169 °C. The compound further had an IC50 in the series with HL60 of 6.93 µM. Also, the IC50 with PC3 was found to be 3.63 µM. In the series with KB, this compound had an IC50 of 5.65 µM. Also, in the series with A549, the IC50 was found to be 7.43 µM. In the series with HCT116, this compound gave an IC50 of 17.2 µM.

Turning to `O=C(c1ccccc1)N1CCN(c2nc3ccccc3nc2S(=O)(=O)c2ccc(Br)cc2)CC1` [Compound 32, 2-(4-Benzoylpiperazin-1-yl)-3-(4-bromophenylsulfonyl)quinoxaline], the melting point was 204 to 205 °C. In the series with HL60, the midpoint of inhibition, the IC50, lay at 17.4 µM. The compound also came in with an IC50 with PC3 of 1.4 µM. Moreover, the IC50 in the series on KB was determined as 3.37 µM. Further, it took 3.96 µM to reach half-maximal inhibition with A549 (IC50). The compound further yielded an IC50 in the series with HCT116 of 10.1 µM.

For the compound `Cc1ccc(S(=O)(=O)c2nc3ccccc3nc2N2CCN(CCCN3CCOCC3)CC2)cc1` [Compound 50, 2-(4-(3-Morpholinopropyl)piperazin-1-yl)-3-(4-methylphenylsulfonyl)quinoxaline], the IC50 in the series with PC3 came to 3.83 µM; in the series with A549 it was 0.51 µM; in the series on HCT116, 0.31 µM.

As to `COc1ccc(S(=O)(=O)c2nc3ccccc3nc2N2CCN(CCCN3CCOCC3)CC2)cc1` [Compound 51, 2-(4-(3-Morpholinopropyl)piperazin-1-yl)-3-(4-methoxyphenylsulfonyl)-quinoxaline], the IC50 in the series with PC3 was 9.3 µM; in the series with A549 it was 2.1 µM; in the series with HCT116, 2.59 µM.

As for `O=S(=O)(c1ccc(F)cc1)c1nc2ccccc2nc1N1CCN(CCCN2CCOCC2)CC1` [Compound 53, 2-(4-(3-Morpholinopropyl)piperazin-1-yl)-3-(4-fluorophenylsulfonyl)quinoxaline], the IC50 was 4.8 µM in the series on PC3, 1.12 µM in the series with A549 and 0.93 µM in the series on HCT116.

For `O=c1cc(N2CCOCC2)oc2c(-c3ccccc3)cccc12` [LY294002, 2-(4-morpholinyl)-8-phenyl-4H-1-benzopyran-4-one, reference compound], the IC50 with HL60 is 9.94 µM; with PC3, 61.4 µM; in the series on KB it was 44.8 µM; in the series on A549, 89.7 µM; with HCT116, 56 µM.

Broadly, the IC50 is the concentration needed to halve the response being measured. A high value points to lower potency. For orientation: melting point means the temperature, or range, at which the solid turns liquid.
